Experimental data reported in patent US7435872B2, “Role of p62 in aging-related disease” (Samsung Electronics, Co., Ltd., priority 2002, dated 2008).
Square brackets hold non-standard residues; d marks the D form. Peptide text beside a SMILES is read from it. * marks the point of attachment. Nle = CCCC[C@H](N)C(=O)O; Cbz = O=C(OCc1ccccc1)*

Legend:
COS7 cells [1] = assay: Sequestosome (p62 inclusion) formation, anti-p62 immunostaining; design: p62 accumulation in sequestosome / cellular inclusion formation in the presence of translational inhibitor: dose or concentration left out as unconfirmed; conditions: 12 hours; for formation of sequestosome: 20 mM ALLN, 5 mM lactacystin, 10 mM MG 132, 50 nM epoxomicin
p62 gene = assay: Activation of the p62 gene, immunoblot and RNA analysis; assay type: cell-based; conditions: COS7 cells, 20 mM LLnL, with or without actinomycin D
Excerpt: Equivalent loading was confirmed by anti-beta-actin immunoblotting. […] Equivalent loading of RNA was confirmed by staining 28S and 18S ribosomal RNA with ethidium bromide (lower panel).

HEK 293 cells = assay: Colocalization of p62 with multi-ubiquitin chain; assay type: cell-based; conditions: increasing concentrations of LLnL, 16 hours
[2] = test system: mouse embryonic fibroblasts (MEFs); assay: Ubiquitin-positive inclusion formation in MEFs; assay type: cell-based; design: dose or concentration left out as unconfirmed; conditions: 12 hours
Excerpt: FIGS. 37A-37B show p62 aggregates formed in MEF in the presence of GSH-depletor. […] Bar=10 μm.
Ubiquitin-p62 inclusion is formed in mouse embryonic fibroblasts. […] MEFs from p62 null embryos were transfected with a p62 expression vector.
Further, p62-positive intracellular inclusion are also formed by oxidative stress. For instance, FIGS. 37A-37B show the formation of p62- or ubiquitin-positive aggregates in MEF in the presence of glutathione (GSH) depletory, diethylmaleate (DEM). […] Thus, p62 has a function to collect misfolded and/or ubiquitinated intracellular proteins and make intracellular inclusions.

COS7 cells [3] = assay: p62 level in triton X-100 soluble and insoluble fractions, immunoblot; assay type: cell-based; design: dose or concentration left out as unconfirmed; conditions: plus cycloheximide
[4] = test system: p62+/+ and p62-/- mouse embryo fibroblast (MEF); assay: Cell viability by MTT assay after glutathione depletion; assay type: cell-based; conditions: different concentrations of DEM or BSO; p62-null versus wild type MEFs
Method: (§1) FIGS. 44A-44B show effects of glutathione depletion on cell viability in p62+/+ and p62−/− mouse embryo fibroblast (MEF). Cell viability was assessed with a methylthiazolium (MTT) assay, which measures mitochondrial dehydrogenase activity of viable cells spectrophotometrically. MEF (3×10^3 cells/well) in 96-well plates were treated with different concentrations of DEM (A) or BSO (B) washed with PBS and then incubated with 0.5 mg/ml MTT in PBS for 4 h. To solubilize the formazan products, […] DMSO was added. The absorption values at 570 nm were determined.
as §1, with “In addition to the above, FIGS.” for “FIGS.”, “determined. […] This death of p62-null MEFs is an apoptotic process (FIG. 48). Thus, p62 appears to have the function of regulating cellular redox status and/or cellular reactive oxygen species (ROS) generation and scavenging systems.” for “determined.”

CC[C@H](C)[C@H](NC(=O)[C@H]([C@@H](C)CC)N(C)C(C)=O)C(=O)N[C@H](C(=O)N[C@@H](CC(C)C)C(=O)[C@@]1(C)CO1)[C@@H](C)O [epoxomicin]
formation of sequestosome (COS7 cells [1]): can induce formation of sequestosome

CCCC[C@@H](C=O)NC(=O)[C@H](CC(C)C)NC(=O)[C@H](CC(C)C)NC(C)=O [LLnL] (Ac-Leu-Leu-[Nle]-aldehyde)
p62 accumulation in sequestosome (COS7 cells [1]): p62 accumulates in sequestosome | formation of sequestosome (COS7 cells [1]): can induce formation of sequestosome | p62 gene activation / p62 level (p62 gene): activation of the p62 gene | colocalization of p62 with multi-ubiquitin chain (HEK 293 cells): colocalization of p62 with multi-ubiquitin chain | ubiquitin-positive inclusion formation, p62-heterozygote MEF [2]: can form the inclusion but less efficiently | ubiquitin-positive inclusion formation, p62-null MEF [2]: cannot form the inclusion at all | ubiquitin-positive inclusion formation, p62 wild type MEF [2]: formed ubiquitin-positive inclusions well

CC(=O)N[C@@H](CSC(=O)[C@]1([C@@H](O)C(C)C)NC(=O)[C@H](C)[C@@H]1O)C(=O)O [lactacystin]
formation of sequestosome (COS7 cells [1]): can induce formation of sequestosome

C[C@@H]1C[C@@H]([C@H](O)CC2CC(=O)NC(=O)C2)C(=O)[C@@H](C)C1 [cycloheximide]
cellular inclusion formation in the presence of translational inhibitor (COS7 cells [1]; plus cycloheximide): not formed | p62 cellular level (COS7 cells [3]): not increased

CC(C)C[C@@H](C=O)NC(=O)[C@H](CC(C)C)NC(=O)[C@H](CC(C)C)NC(=O)OCc1ccccc1 [MG 132] (Cbz-Leu-Leu-Leu-aldehyde)
formation of sequestosome (COS7 cells [1]): can induce formation of sequestosome

CCCCS(=N)(=O)CCC(N)C(=O)O (stereo not shown) [BSO, buthioninesulfoximine]
cell viability (MTT) on glutathione depletion [4]: p62-null MEFs die more readily compared with wild type MEFs
